Data published in patent publication US20250122219A1 (priority 2023, published 2025).

Columns and labels:
HIV-1 (IIIB) = assay: Antiviral assay in MT-4 cells; format: cell-based; details: Human immunodeficiency virus 1, MT4, 120 h; HIV-1 IIIB in MT-4 cells, 5 days incubation, Cell Titer Glo; read-out: MT4 EC50
Summary of the method: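 Read-out: CellTiter-Glo luminescence after 5 days at 37 °C, reflecting survival of MT-4 cells infected with HIV-1 IIIB (1:250 fresh stock dilution) versus mock-infected. Compounds serially diluted into RPMI with 10% FBS; AZT at 5 μM served as positive control.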

[1] = Cytotoxicity assay in MT-4 cells; format: cell-based; details: human; uninfected MT-4 cells, 5 days incubation, Cell Titer Glo; read-out: MT4 CC50
Summary of the method: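 Viability read by Cell Titer Glo luminescence after 5 days at 37 °C. MT-4 cells, not infected, in complete RPMI (10% FBS), received compound dilution series. Base cytotoxicity set with […] puromycin.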

Compound	EC50 (HIV-1 (IIIB)) [nM]	CC50 at 5 days [1] [nM]
COC1=NO[C@@]2(CC[C@H](C)N3C[C@H]2n2cc(C(=O)NCc4ccc(F)cc4F)c(=O)c(OC(=O)CCCCCC(C)C)c2C3=O)C1 [Example 64, (3′S,5S,7′R)-10′-((2,4-difluorobenzyl)carbamoyl)-3-methoxy-3′-methyl-1′,11′-dioxo-1′,4′,5′,11′-tetrahydro-3′H,4H,7′H-spiro[isoxazole-5,6′-[2,7]methanopyrido[1,2-a][1,4]diazonin]-12′-yl 7-methyloctanoate]	2.48	38100
COCCCCCC(=O)Oc1c2n(cc(C(=O)NCc3ccc(F)cc3F)c1=O)[C@@H]1CN(C2=O)[C@@H](C)CC[C@]12CC(OC)=NO2 [Example 70, (3′S,5S,7′R)-10′-((2,4-difluorobenzyl)carbamoyl)-3-methoxy-3′-methyl-1′,11′-dioxo-1′,4′,5′,11′-tetrahydro-3′H,4H,7′H-spiro[isoxazole-5,6′-[2,7]methanopyrido[1,2-a][1,4]diazonin]-12′-yl 6-methoxyhexanoate]	1.02	17600
CC/C=C\C/C=C\C/C=C\C/C=C\C/C=C\CCCC(=O)Oc1c2n(cc(C(=O)NCc3ccc(F)cc3F)c1=O)[C@@H]1CN(C2=O)[C@@H](C)CC[C@]12CC(C)=NO2 [Example 68, (3′S,5S,7′R)-10′-((2,4-difluorobenzyl)carbamoyl)-3,3′-dimethyl-1′,11′-dioxo-1′,4′,5′,11′-tetrahydro-3′H,4H,7′H-spiro[isoxazole-5,6′-[2,7]methanopyrido[1,2-a][1,4]diazonin]-12′-yl (5Z,8Z,11Z,14Z,17Z)-icosa-5,8,11,14,17-pentaenoate]	1.09	16500
CCCC(=O)OCOc1c2n(cc(C(=O)NCc3ccc(F)cc3F)c1=O)[C@@H]1CN(C2=O)[C@@H](C)CC[C@]12CC(C)=NO2 [Example 88, (((3′S,5S,7′R)-10′-((2,4-difluorobenzyl)carbamoyl)-3,3′-dimethyl-1′,11′-dioxo-1′,4′,5′,11′-tetrahydro-3′H,4H,7′H-spiro[isoxazole-5,6′-[2,7]methanopyrido[1,2-a][1,4]diazonin]-12′-yl)oxy)methyl butyrate]	1.78	20400
CCCCCCOC(=O)Oc1c2n(cc(C(=O)NCc3ccc(F)cc3F)c1=O)[C@@H]1CN(C2=O)[C@@H](C)CC[C@]12CC(C)=NO2 [Example 131, (3′S,5S,7′R)-10′-((2,4-difluorobenzyl)carbamoyl)-3,3′-dimethyl-1′,11′-dioxo-1′,4′,5′,11′-tetrahydro-3′H,4H,7′H-spiro[isoxazole-5,6′-[2,7]methanopyrido[1,2-a][1,4]diazonin]-12′-yl hexyl carbonate]	0.136	19800
CCCCCCCCCC(=O)Oc1c2n(cc(C(=O)NCc3ccc(F)cc3F)c1=O)[C@@H]1CN(C2=O)[C@@H](C)CC[C@]12CC(C)=NO2 [Example 45, (3′S,5S,7′R)-10′-((2,4-difluorobenzyl)carbamoyl)-3,3′-dimethyl-1′,11′-dioxo-1′,4′,5′,11′-tetrahydro-3′H,4H,7′H-spiro[isoxazole-5,6′-[2,7]methanopyrido[1,2-a][1,4]diazonin]-12′-yl decanoate]	0.373	22200
COC1=NO[C@@]2(CC[C@H](C)N3C[C@H]2n2cc(C(=O)NCc4ccc(F)cc4F)c(=O)c(OC(=O)CC(C)C)c2C3=O)C1 [Example 54, (3′S,5S,7′R)-10′-((2,4-difluorobenzyl)carbamoyl)-3-methoxy-3′-methyl-1′,11′-dioxo-1′,4′,5′,11′-tetrahydro-3′H,4H,7′H-spiro[isoxazole-5,6′-[2,7]methanopyrido[1,2-a][1,4]diazonin]-12′-yl 3-methylbutanoate]	0.504	19400
CCCCCCCCCCCCCC(=O)Oc1c2n(cc(C(=O)NCc3ccc(F)cc3F)c1=O)[C@@H]1CN(C2=O)[C@@H](C)CC[C@]12CC(OC)=NO2 [Example 26, (3′S,5S,7′R)-10′-((2,4-difluorobenzyl)carbamoyl)-3-methoxy-3′-methyl-1′,11′-dioxo-1′,4′,5′,11′-tetrahydro-3′H,4H,7′H-spiro[isoxazole-5,6′-[2,7]methanopyrido[1,2-a][1,4]diazonin]-12′-yl tetradecanoate]	2.62	22600
CCCCCC(=O)Oc1c2n(cc(C(=O)NCc3ccc(F)cc3F)c1=O)[C@@H]1CN(C2=O)[C@@H](C)CC[C@]12CC(OC)=NO2 [Example 36, (3′S,5S,7′R)-10′-((2,4-difluorobenzyl)carbamoyl)-3-methoxy-3′-methyl-1′,11′-dioxo-1′,4′,5′,11′-tetrahydro-3′H,4H,7′H-spiro[isoxazole-5,6′-[2,7]methanopyrido[1,2-a][1,4]diazonin]-12′-yl hexanoate]	0.345	19600

More lines, main results first:

EC50 (HIV-1 (IIIB)) [nM]	Compound	CC50 at 5 days [1] [nM]
4.75	CCOC(=O)OCOc1c2n(cc(C(=O)NCc3ccc(F)cc3F)c1=O)[C@@H]1CN(C2=O)[C@@H](C)CC[C@]12CC(OC)=NO2 [Example 173, (((3′S,5S,7′R)-10′-((2,4-difluorobenzyl)carbamoyl)-3-methoxy-3′-methyl-1′,11′-dioxo-1′,4′,5′,11′-tetrahydro-3′H,4H,7′H-spiro[isoxazole-5,6′-[2,7]methanopyrido[1,2-a][1,4]diazonin]-12′-yl)oxy)methyl ethyl carbonate]	37900
0.358	CCCCCCCOC(=O)OCOc1c2n(cc(C(=O)NCc3ccc(F)cc3F)c1=O)[C@@H]1CN(C2=O)[C@@H](C)CC[C@]12CC(C)=NO2 [Example 183, (((3′S,5S,7′R)-10′-((2,4-difluorobenzyl)carbamoyl)-3,3′-dimethyl-1′,11′-dioxo-1′,4′,5′,11′-tetrahydro-3′H,4H,7′H-spiro[isoxazole-5,6′-[2,7]methanopyrido[1,2-a][1,4]diazonin]-12′-yl)oxy)methyl heptyl carbonate]	11400
2.42	COCCOCCOCCOCCOCCOCCOCCOC(=O)Oc1c2n(cc(C(=O)NCc3ccc(F)cc3F)c1=O)[C@@H]1CN(C2=O)[C@@H](C)CC[C@]12CC(C)=NO2 [Example 162, (3′S,5S,7′R)-10′-((2,4-difluorobenzyl)carbamoyl)-3,3′-dimethyl-1′,11′-dioxo-1′,4′,5′,11′-tetrahydro-3′H,4H,7′H-spiro[isoxazole-5,6′-[2,7]methanopyrido[1,2-a][1,4]diazonin]-12′-yl (2,5,8,11,14,17,20-heptaoxadocosan-22-yl) carbonate]	27800
0.366	CCCCOC(=O)OCOc1c2n(cc(C(=O)NCc3ccc(F)cc3F)c1=O)[C@@H]1CN(C2=O)[C@@H](C)CC[C@]12CC(OC)=NO2 [Example 177, butyl ((((3′S,5S,7′R)-10′-((2,4-difluorobenzyl)carbamoyl)-3-methoxy-3′-methyl-1′,11′-dioxo-1′,4′,5′,11′-tetrahydro-3′H,4H,7′H-spiro[isoxazole-5,6′-[2,7]methanopyrido[1,2-a][1,4]diazonin]-12′-yl)oxy)methyl) carbonate]	23900
2.06	CCCOC(=O)OCOc1c2n(cc(C(=O)NCc3ccc(F)cc3F)c1=O)[C@@H]1CN(C2=O)[C@@H](C)CC[C@]12CC(OC)=NO2 [Example 175, (((3′S,5S,7′R)-10′-((2,4-difluorobenzyl)carbamoyl)-3-methoxy-3′-methyl-1′,11′-dioxo-1′,4′,5′,11′-tetrahydro-3′H,4H,7′H-spiro[isoxazole-5,6′-[2,7]methanopyrido[1,2-a][1,4]diazonin]-12′-yl)oxy)methyl propyl carbonate]	23300
6.9	CCCCCCCCCCCCCCCCOC(=O)Oc1c2n(cc(C(=O)NCc3ccc(F)cc3F)c1=O)[C@@H]1CN(C2=O)[C@@H](C)CC[C@]12CC(C)=NO2 [Example 144, (3′S,5S,7′R)-10′-((2,4-difluorobenzyl)carbamoyl)-3,3′-dimethyl-1′,11′-dioxo-1′,4′,5′,11′-tetrahydro-3′H,4H,7′H-spiro[isoxazole-5,6′-[2,7]methanopyrido[1,2-a][1,4]diazonin]-12′-yl hexadecyl carbonate]	≥ 50000
2.64	CCCCCCCCCCCCOC(=O)Oc1c2n(cc(C(=O)NCc3ccc(F)cc3F)c1=O)[C@@H]1CN(C2=O)[C@@H](C)CC[C@]12CC(C)=NO2 [Example 141, (3′S,5S,7′R)-10′-((2,4-difluorobenzyl)carbamoyl)-3,3′-dimethyl-1′,11′-dioxo-1′,4′,5′,11′-tetrahydro-3′H,4H,7′H-spiro[isoxazole-5,6′-[2,7]methanopyrido[1,2-a][1,4]diazonin]-12′-yl dodecyl carbonate]	16500
1.19	COC1=NO[C@@]2(CC[C@H](C)N3C[C@H]2n2cc(C(=O)NCc4ccc(F)cc4F)c(=O)c(OC(=O)OCCCCC(C)C)c2C3=O)C1 [Example 155, (3′S,5S,7′R)-10′-((2,4-difluorobenzyl)carbamoyl)-3-methoxy-3′-methyl-1′,11′-dioxo-1′,4′,5′,11′-tetrahydro-3′H,4H,7′H-spiro[isoxazole-5,6′-[2,7]methanopyrido[1,2-a][1,4]diazonin]-12′-yl (5-methylhexyl) carbonate]	17500
2.71	COC1=NO[C@@]2(CC[C@H](C)N3C[C@H]2n2cc(C(=O)NCc4ccc(F)cc4F)c(=O)c(OCOC(=O)OCCC(C)C)c2C3=O)C1 [Example 202, (((3′S,5S,7′R)-10′-((2,4-difluorobenzyl)carbamoyl)-3-methoxy-3′-methyl-1′,11′-dioxo-1′,4′,5′,11′-tetrahydro-3′H,4H,7′H-spiro[isoxazole-5,6′-[2,7]methanopyrido[1,2-a][1,4]diazonin]-12′-yl)oxy)methyl isopentyl carbonate]	21600
